Data from US20220089592A1, “IMIDAZO[1,2-A]PYRIDINYL DERIVATIVES AS IRAK4 INHIBITORS” (priority 2019, published 2022).

Tests used:
[1] = target: T1, IRAK4 (Homo sapiens, UniProt Q9NWZ3); experiment: 2-hour 10 μM ATP Biochemical Assay (MesoScale Detection format; IRAK4 phosphorylation of biotin labeled IRAK1 activation loop peptide); conditions: IRAK4 MSD BIOCHEMICAL (10 μM ATP) IC50 (μM), 1 nM IRAK4, 2 hours
T1 sequence (Q9NWZ3 1-460): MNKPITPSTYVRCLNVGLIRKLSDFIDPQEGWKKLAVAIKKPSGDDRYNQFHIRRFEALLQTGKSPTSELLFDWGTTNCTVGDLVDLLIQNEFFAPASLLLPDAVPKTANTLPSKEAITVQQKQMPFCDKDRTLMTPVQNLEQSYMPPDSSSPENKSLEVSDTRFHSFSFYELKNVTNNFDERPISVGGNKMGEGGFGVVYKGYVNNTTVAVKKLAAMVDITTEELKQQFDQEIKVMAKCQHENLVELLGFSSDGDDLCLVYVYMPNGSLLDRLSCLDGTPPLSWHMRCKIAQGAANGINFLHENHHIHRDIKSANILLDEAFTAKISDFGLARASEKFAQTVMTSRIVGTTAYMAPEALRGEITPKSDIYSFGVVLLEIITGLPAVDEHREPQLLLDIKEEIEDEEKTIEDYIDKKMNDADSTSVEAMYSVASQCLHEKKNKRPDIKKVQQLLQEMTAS
How it was run: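 Kinase reaction run 2 h at 10 μM ATP with biotinylated IRAK1 activation-loop peptide, quenched with EDTA. Phospho-peptide captured on streptavidin MSD plates and detected with anti-phosphothreonine rabbit antibody plus Sulfo-Tag anti-rabbit electrochemiluminescence.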

[2] = target: T1, IRAK4; experiment: 2-hour 1 mM ATP IRAK4 Biochemical assay (as above, but with 100 pM IRAK4 and 1 mM ATP); conditions: IRAK4 MSD BIOCHEMICAL (1 mM ATP) IC50 (μM), 100 pM IRAK4, 2 hours
How it was run: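 Run with 100 pM IRAK4 and 1 mM ATP for 2 hours, quenched with EDTA pH 8. Phosphorylated biotinylated peptide captured on streptavidin MSD plates and detected with anti-phosphothreonine antibody plus Sulfo-Tag secondary by electrochemiluminescence.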

Structure (SMILES)	IC50 [1] [µM]	IC50 [2] [µM]
O=C(Nc1cn2cc(C3CC3)nc2cc1OCC1CCC1)c1cccc(C(F)F)n1 [Example 5, N-(7-(cyclobutylmethoxy)-2-cyclopropylimidazo[1,2-a]pyridin-6-yl)-6-(difluoromethyl)picolinamide]	0.003	0.003
CCOc1cc2nc(CCOC)cn2cc1NC(=O)c1cccc(C(F)F)n1 [Example 13, 6-(difluoromethyl)-N-(7-ethoxy-2-(2-methoxyethyl)imidazo[1,2-a]pyridin-6-yl)picolinamide]	0.002	0.003
CCOc1cc2nc(CO)cn2cc1NC(=O)c1cccc(C(F)(F)F)n1 [Example 18, N-(7-ethoxy-2-(hydroxymethyl)imidazo[1,2-a]pyridin-6-yl)-6-(trifluoromethyl)picolinamide]	0.004	0.014
CCOc1cc2nc(C(C)(C)O)cn2cc1NC(=O)c1cccc(C(F)(F)F)n1 [Example 19, N-(7-ethoxy-2-(2-hydroxypropan-2-yl)imidazo[1,2-a]pyridin-6-yl)-6-(trifluoromethyl)picolinamide]	0.009	0.044
CCOc1cc2nc(CCCO)cn2cc1NC(=O)c1cccc(C(F)F)n1 [Example 23, 6-(difluoromethyl)-N-(7-ethoxy-2-(3-hydroxypropyl)imidazo[1,2-a]pyridin-6-yl)picolinamide]	0.001	0.002
O=C(Nc1cn2cc(C3CC3)nc2cc1OCC(F)(F)F)c1cccc(C(F)F)n1 [Example 26, N-(2-cyclopropyl-7-(2,2,2-trifluoroethoxy)imidazo[1,2-a]pyridin-6-yl)-6-(difluoromethyl)picolinamide]	0.003	0.007
CCOc1cc2nc(CCC(C)(C)O)cn2cc1NC(=O)c1cccc(C(F)F)n1 [Example 27, 6-(difluoromethyl)-N-(7-ethoxy-2-(3-hydroxy-3-methylbutyl)imidazo[1,2-a]pyridin-6-yl)picolinamide]	0.001	0.001
CCOc1cc2nc(C3CC(F)(F)C3)cn2cc1NC(=O)c1cccc(C(F)(F)F)n1 [Example 33, N-(2-(3,3-difluorocyclobutyl)-7-ethoxyimidazo[1,2-a]pyridin-6-yl)-6-(trifluoromethyl)picolinamide]	0.003	0.011
CCOc1cc2nc(CC)cn2cc1NC(=O)c1ccn(C(F)F)n1 [Example 44, 1-(difluoromethyl)-N-(7-ethoxy-2-ethylimidazo[1,2-a]pyridin-6-yl)-1H-pyrazole-3-carboxamide]	0.012	0.027
CC1(COc2cc3nc(C4CC4)cn3cc2NC(=O)c2cccc(C(F)F)n2)COC1 [Example 50, N-(2-cyclopropyl-7-((3-methyloxetan-3-yl)methoxy)imidazo[1,2-a]pyridin-6-yl)-6-(difluoromethyl)picolinamide]	0.004	0.014
CCOc1cc2nc(C(F)F)cn2cc1NC(=O)c1cccc(C(F)(F)F)n1 [Example 57, N-(2-(difluoromethyl)-7-ethoxyimidazo[1,2-a]pyridin-6-yl)-6-(trifluoromethyl)picolinamide]	0.003	0.008
CCOc1cc2nc(CC3CCCO3)cn2cc1NC(=O)c1cccc(C(F)(F)F)n1 (centres unmarked) [Example 60, N-(7-ethoxy-2-((tetrahydrofuran-2-yl)methyl)imidazo[1,2-a]pyridin-6-yl)-6-(trifluoromethyl)picolinamide]	0.002	0.006
CCOc1cc2nc(C3CNC3)cn2cc1NC(=O)c1cccc(C(F)(F)F)n1 [Example 61, N-(2-(azetidin-3-yl)-7-ethoxyimidazo[1,2-a]pyridin-6-yl)-6-(trifluoromethyl)picolinamide]	0.001	0.002
CCOc1cc2nc(C3CCNC3)cn2cc1NC(=O)c1cccc(C(F)(F)F)n1 (centres unmarked) [Example 62, N-(7-ethoxy-2-(pyrrolidin-3-yl)imidazo[1,2-a]pyridin-6-yl)-6-(trifluoromethyl)picolinamide]	0.001	0.001
CCOc1cc2nc(C3CN(C)C3)cn2cc1NC(=O)c1cccc(C(F)(F)F)n1 [Example 65, N-(7-ethoxy-2-(1-methylazetidin-3-yl)imidazo[1,2-a]pyridin-6-yl)-6-(trifluoromethyl)picolinamide]	0.001	0.001
CCOc1cc2nc(C3CN(C(C)=O)C3)cn2cc1NC(=O)c1cccc(C(F)(F)F)n1 [Example 68, N-(2-(1-acetylazetidin-3-yl)-7-ethoxyimidazo[1,2-a]pyridin-6-yl)-6-(trifluoromethyl)picolinamide]	0.001	0.001
CCOc1cc2nc(C3CCN(C(C)=O)C3)cn2cc1NC(=O)c1cccc(C(F)(F)F)n1 (centres unmarked) [Example 69, N-(2-(1-acetylpyrrolidin-3-yl)-7-ethoxyimidazo[1,2-a]pyridin-6-yl)-6-(trifluoromethyl)picolinamide]	0.001	0.001
CCOc1cc2nc(C3CCN(C(C)=O)CC3)cn2cc1NC(=O)c1cccc(C(F)(F)F)n1 [Example 72, N-(2-(1-acetylpiperidin-4-yl)-7-ethoxyimidazo[1,2-a]pyridin-6-yl)-6-(trifluoromethyl)picolinamide]	0.001	0.001
CCOc1nc2nc(CC)cn2cc1NC(=O)c1cccc(C(F)F)n1 [Example 74, 6-(difluoromethyl)-N-(7-ethoxy-2-ethylimidazo[1,2-a]pyrimidin-6-yl)picolinamide]	0.007	0.018
CCOc1cc2nc(C3CN(C4COC4)C3)cn2cc1NC(=O)c1cccc(C(F)F)n1 [Example 79, 6-(difluoromethyl)-N-(7-ethoxy-2-(1-(oxetan-3-yl)azetidin-3-yl)imidazo[1,2-a]pyridin-6-yl)picolinamide]	0.001	0.001

Next, values leading:

IC50 [1] [µM]	IC50 [2] [µM]	Structure (SMILES)
0.005	0.01	O=C(Nc1cn2cc(C3CC3)nc2cc1OCc1ccccc1)c1cccc(C(F)F)n1 [Example 9, N-(7-(benzyloxy)-2-cyclopropylimidazo[1,2-a]pyridin-6-yl)-6-(difluoromethyl)picolinamide]
0.005	0.016	CCOc1cc2nc(C(C)(C)CO)cn2cc1NC(=O)c1cccc(C(F)F)n1 [Example 17, 6-(difluoromethyl)-N-(7-ethoxy-2-(1-hydroxy-2-methylpropan-2-yl)imidazo[1,2-a]pyridin-6-yl)picolinamide]
0.003	0.006	CCOc1cc2nc(CF)cn2cc1NC(=O)c1cccc(C(F)(F)F)n1 [Example 20, N-(7-ethoxy-2-(fluoromethyl)imidazo[1,2-a]pyridin-6-yl)-6-(trifluoromethyl)picolinamide]
0.001	0.002	CCOc1cc2nc(CC3CCOC3)cn2cc1NC(=O)c1coc(-c2cnn(C)c2)n1 (centres unmarked) [Example 22, N-(7-ethoxy-2-((tetrahydrofuran-3-yl)methyl)imidazo[1,2-a]pyridin-6-yl)-2-(1-methyl-1H-pyrazol-4-yl)oxazole-4-carboxamide]
0.002	0.004	O=C(Nc1cn2cc(C3CC3)nc2cc1N1CCN(CC(F)F)CC1)c1cccc(C(F)(F)F)n1 [Example 24, N-(2-cyclopropyl-7-(4-(2,2-difluoroethyl)piperazin-1-yl)imidazo[1,2-a]pyridin-6-yl)-6-(trifluoromethyl)picolinamide]
0.002	0.004	O=C(Nc1cn2cc(C3CC3)nc2cc1OCC1CC1)c1cccc(C(F)F)n1 [Example 25, N-(2-cyclopropyl-7-(cyclopropylmethoxy)imidazo[1,2-a]pyridin-6-yl)-6-(difluoromethyl)picolinamide]
0.006	0.019	CCOc1cc2nc(CC)cn2cc1NC(=O)c1ccc2c(n1)CCC2 [Example 49, N-(7-ethoxy-2-ethylimidazo[1,2-a]pyridin-6-yl)-6,7-dihydro-5H-cyclopenta[b]pyridine-2-carboxamide]
0.003	0.015	CCOCc1cn2cc(NC(=O)c3cccc(C(F)(F)F)n3)c(OCC)cc2n1 [Example 55, N-(7-ethoxy-2-(ethoxymethyl)imidazo[1,2-a]pyridin-6-yl)-6-(trifluoromethyl)picolinamide]
0.005	0.014	CCOc1cc2nc(COC)cn2cc1NC(=O)c1cccc(C(F)(F)F)n1 [Example 56, N-(7-ethoxy-2-(methoxymethyl)imidazo[1,2-a]pyridin-6-yl)-6-(trifluoromethyl)picolinamide]
0.002	0.003	CCOc1cc2nc(C3CCOC3)cn2cc1NC(=O)c1cccc(C(F)(F)F)n1 (centres unmarked) [Example 59, N-(7-ethoxy-2-(tetrahydrofuran-3-yl)imidazo[1,2-a]pyridin-6-yl)-6-(trifluoromethyl)picolinamide]
0.011	0.032	O=C1CC[C@@H](CCOc2cc3nc(C4CC4)cn3cc2NC(=O)c2cccc(C(F)F)n2)N1 [Example 73, (S)—N-(2-cyclopropyl-7-(2-(5-oxopyrrolidin-2-yl)ethoxy)imidazo[1,2-a]pyridin-6-yl)-6-(difluoromethyl)picolinamide]
